Measured values from US9863956B2, “Differentiation of isobaric amino acids and other species” (Agency for Science, Technology and Research, priority 2009, dated 2018).
Where no end group is shown, it is not given here.

How the values were obtained:
bCAII = bCAII (Bos taurus, UniProt P00921); assay: SPR affinity measurement (Biacore 3000) of peptide on immobilized bCAII; type: binding, bovine
Experimental: Affinity measurements were performed using a Biacore 3000 system (GE Heathcare) equipped with research grade CM5 sensor chips (GE Healthcare). The CM5 sensor chip was preconditioned after docking and priming the instrument with HBS-EP (GE Heathcare) buffer. Flow cell 1 (or 3) was used as a reference to subtract nonspecific binding, drift, and bulk refractive index. Using a flow rate of 20 microliters/min, the sensor chip's four flow cells were activated at 25° C. with a 7 min injection of amine-coupling kit (GE Healthcare) (1:1 mixture of 0.4 M EDC and 0.1 M NHS). To create a bCAII surface, 1 mg of bCAII was dissolved in 1 mL of 10 mM sodium acetate (pH 5.0) and injected across flow cell 2 only. Approximately 1000 response units (RU) of bCAII were immobilized onto this surface. Finally, 1.0 M ethanolamine (pH 8.5) was injected across the four flow cells for 4 min to deactivate the surfaces. After bCAII immobilization, the instrument was primed three times using running buffer (1×PBS+3% DMSO). HIRYKR (SEQ ID NO: 2) peptide (26.13 micrograms) was dissolved in 18 microliters DMSO and diluted with HBS-EP buffer to produce a 50 micromolar peptide stock solution. The peptide stock solution was serially diluted by a factor of 2 to a concentration of 390 nM. […]

[1] = target: bovine carbonic anhydrase (bCAII) (Bos taurus, UniProt P00921); assay: OBOC hexamer peptide library screening with Alexa Fluor 647 labeled bCAII, COPAS Plus bead sorting; type: binding; conditions: 50 nM dye labeled bCAII, 15 hr at 25° C.; on-bead peptide
bovine carbonic anhydrase (bCAII), sequence (P00921 whole entry): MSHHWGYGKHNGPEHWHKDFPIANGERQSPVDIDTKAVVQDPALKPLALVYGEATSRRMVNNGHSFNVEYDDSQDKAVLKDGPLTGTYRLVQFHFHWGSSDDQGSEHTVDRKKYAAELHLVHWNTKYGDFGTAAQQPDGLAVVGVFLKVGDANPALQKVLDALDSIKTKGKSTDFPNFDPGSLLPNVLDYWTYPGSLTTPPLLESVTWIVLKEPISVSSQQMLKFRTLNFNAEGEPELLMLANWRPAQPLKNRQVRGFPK
Experimental: Alexa Fluor® 647 protein labeling kit (A20173, Invitrogen) was chosen as the reactive dye for labeling bovine carbonic anhydrase (bCAII) following the supplier's protocol. Briefly, 2 mg/mL of bCAII in 0.1 M sodium bicarbonate (pH ˜8.3) was transferred 0.5 mL of bCAII solution into the vial of the reactive dye, and the vial was capped and inverted several times to dissolve the dye completely. The reaction mixture was stirred for 1 hr at room temperature under dark conditions. The Alexa Fluro® 647 labeled bCAII (bCAII-A647) was purified from the mixture using the size exclusion purification resin in the kit. Purified and labeled bCAII-A647 was characterized by NanoDrop (Thermo Scientific) and gel documentation (Typhoon) after SDS-PAGE. […]
Hit beads were sorted into cone-shaped wells of a 96 well plate using a COPAS Plus. […] The gating region was defined for beads based on their time-of-flight (TOF) and red fluorescence, and the sorting region was chosen for selecting beads based on their time-of-flight (TOF) and uniformity red fluorescence after incubation with bCAII-A647. […] The TOF, red fluorescence, and red fluorescence peak height of the beads were detected using a red diode laser (λ=635 nm). Due to the auto-fluorescence of the beads, the argon ion laser was intentionally turned off to minimize bleed-through effect. […]

bCAII, sequence (P00921 whole entry): as above

Row | dissociation constant (KD) (bCAII; 1:1 Langmuir binding fit, 25° C., peptide 50 micromolar to 390 nM) | binding affinity to the protein bCAII (bCAII; conclusion in words) | hit in library screening against bCAII (bead fluorescence) [1] | Substance
1 | micromolar range | significant binding affinity | hit peptide from the brightest bead | HIRYKR [hit hexamer peptide from OBOC library screened against bCAII, re-synthesized from Fmoc D-amino acids with a carboxamide C-terminus]
2 | – | – | hit peptide | IQHKRF (not fully specified (residues 1, 2, 3, 4, 5, 6, C-terminus); also: D-amino acids, which residues not given here)
